In general, IC50 refers to the concentration needed to halve the response being measured. The low end stands for inhibition by little substance, the high end for a need for much substance.

The values that follow come from ChEMBL document CHEMBL1145028, “Retroinverso analogue of the antiviral octapeptide C8 inhibits feline immunodeficiency virus in serum” (J Med Chem, 2003).

Assay [1] concerns Feline immunodeficiency virus. Briefly: Concentration required to inhibit feline immunodeficiency virus (FIV) replication in 50% normal cat serum (NCS). The class given is functional, organism-based.
Assay [2] relates to Feline immunodeficiency virus. Briefly: Concentration required to inhibit feline immunodeficiency virus (FIV) replication in normal tissue culture medium. It is filed as functional, organism-based.

Converted amounts (≈) assume the structure as drawn.

In the case of Ac-WEDWVGWI-NH2, the figures for the IC50 in assay [1] and in assay [2] were 5.21 µg/mL and 0.15 µg/mL, respectively.

Take `CC[C@@H](C)[C@@H](NC(C)=O)C(=O)N[C@H](Cc1c[nH]c2ccccc12)C(=O)NCC(=O)N[C@@H](C(=O)N[C@H](Cc1c[nH]c2ccccc12)C(=O)N[C@H](CC(=O)O)C(=O)N[C@H](CCC(=O)O)C(=O)N[C@H](Cc1c[nH]c2ccccc12)C(N)=O)C(C)C`: the IC50 in assay [1] was determined as 0.8 µg/mL (≈ 0.707 µM); in assay [2], 0.63 µg/mL (≈ 0.557 µM).
